# Data: PMC5218480 (PLoS ONE, 2017)
# System: MV-4-11 cells
# Assay: Gene expression microarray analysis (Affymetrix PrimeView) and GSEA
# Assay type: cell-based, human
# Design: RFU PODN (11730768_x_at) / Fold change /veh PODN (11730768_x_at) / RFU LINC00158 (11744669_a_at) / Fold change /veh LINC00158 (11744669_a_at) / RFU DUSP10 (11751237_a_at) / Fold change /veh DUSP10 (11751237_a_at) / RFU ID3 (11757404_x_at) / Fold change /veh ID3 (11757404_x_at) / RFU PLEKHG5 (11737974_s_at) / Fold change /veh PLEKHG5 (11737974_s_at) / RFU LRRC4B (11730491_at) / Fold change /veh LRRC4B (11730491_at) / RFU GIMAP4 (11747438_a_at) / Fold change /veh GIMAP4 (11747438_a_at) / RFU KRT8 (11758183_x_at) / Fold change /veh KRT8 (11758183_x_at) / RFU CNN1 (11734310_a_at) / Fold change /veh CNN1 (11734310_a_at) / RFU VPS37D (11726825_at) / Fold change /veh VPS37D (11726825_at) / RFU C10orf10 (11716522_x_at) / Fold change /veh C10orf10 (11716522_x_at) / RFU KIR2DL2 /// KIR2DL4 /// KIR2DL5A /// KIR2DL5B /// KIR2DS1 /// KIR2DS2 /// KIR2DS3 /// KIR2DS4 /// KIR3DL3 /// KIR3DL3 /// KIR3DS1 (11738374_at) / Fold change /veh KIR2DL2 /// KIR2DL4 /// KIR2DL5A /// KIR2DL5B /// KIR2DS1 /// KIR2DS2 /// KIR2DS3 /// KIR2DS4 /// KIR3DL3 /// KIR3DL3 /// KIR3DS1 (11738374_at) / RFU C1QL1 (11718748_at) / Fold change /veh C1QL1 (11718748_at) / RFU TMPRSS4 (11747572_a_at) / Fold change /veh TMPRSS4 (11747572_a_at) / RFU HAMP (11756126_x_at) / Fold change /veh HAMP (11756126_x_at) / RFU RNFT2 (11725882_a_at) / Fold change /veh RNFT2 (11725882_a_at) / RFU NR4A2 (11747474_a_at) / Fold change /veh NR4A2 (11747474_a_at) / RFU ABCC12 (11746883_a_at) / Fold change /veh ABCC12 (11746883_a_at) / RFU TMEM136 (11760407_x_at) / Fold change /veh TMEM136 (11760407_x_at) / RFU CLDN22 /// WWC2 (11732394_at) / Fold change /veh CLDN22 /// WWC2 (11732394_at) / RFU HLA-DPB1 (11760878_x_at) / Fold change /veh HLA-DPB1 (11760878_x_at) / RFU SPINT1 (11716480_a_at) / Fold change /veh SPINT1 (11716480_a_at) / RFU GAP43 (11754022_s_at) / Fold change /veh GAP43 (11754022_s_at) / RFU A4GNT (11735810_at) / Fold change /veh A4GNT (11735810_at) / RFU PRB3 (11715151_x_at) / Fold change /veh PRB3 (11715151_x_at) / RFU TUBB4B (11761932_at) / Fold change /veh TUBB4B (11761932_at) / RFU CAPN14 (11732068_a_at) / Fold change /veh CAPN14 (11732068_a_at) / RFU TMCC2 (11721928_a_at) / Fold change /veh TMCC2 (11721928_a_at) / RFU IRGQ (11745062_a_at) / Fold change /veh IRGQ (11745062_a_at) / RFU FAM174B (11720279_a_at) / Fold change /veh FAM174B (11720279_a_at) / RFU TMPRSS4 (11748680_a_at) / Fold change /veh TMPRSS4 (11748680_a_at) / RFU FAM212B (11763350_a_at) / Fold change /veh FAM212B (11763350_a_at) / RFU PLEKHG5 (11743358_a_at) / Fold change /veh PLEKHG5 (11743358_a_at) / RFU ZSCAN30 (11745921_a_at) / Fold change /veh ZSCAN30 (11745921_a_at) / RFU CMKLR1 (11741424_a_at) / Fold change /veh CMKLR1 (11741424_a_at) / RFU LOC101060620 /// MAPK8IP1 (11723275_at) / Fold change /veh LOC101060620 /// MAPK8IP1 (11723275_at) / RFU SPTSSB (11747773_x_at) / Fold change /veh SPTSSB (11747773_x_at) / RFU PRSS12 (11739890_at) / Fold change /veh PRSS12 (11739890_at) / RFU BIN1 (11741810_x_at) / Fold change /veh BIN1 (11741810_x_at) / RFU WNT11 (11732464_a_at) / Fold change /veh WNT11 (11732464_a_at) / RFU C10orf10 (11716521_a_at) / Fold change /veh C10orf10 (11716521_a_at) / RFU C5orf56 (11738089_at) / Fold change /veh C5orf56 (11738089_at) / RFU CYB561 (11721691_x_at) / Fold change /veh CYB561 (11721691_x_at) / RFU ANKRD19P (11752326_a_at) / Fold change /veh ANKRD19P (11752326_a_at) / RFU OR2T12 /// OR2T33 /// OR2T8 (11738714_s_at) / Fold change /veh OR2T12 /// OR2T33 /// OR2T8 (11738714_s_at) / RFU VCAN (11748164_a_at) / Fold change /veh VCAN (11748164_a_at) / RFU JSRP1 (11732532_at) / Fold change /veh JSRP1 (11732532_at) / RFU KRTAP10-11 (11738290_x_at) / Fold change /veh KRTAP10-11 (11738290_x_at) / RFU MYO3A (11730013_a_at) / Fold change /veh MYO3A (11730013_a_at) / RFU EBF3 (11725865_a_at) / Fold change /veh EBF3 (11725865_a_at) / RFU CAMK2N1 (11719241_x_at) / Fold change /veh CAMK2N1 (11719241_x_at) / RFU C5orf56 (11738088_a_at) / Fold change /veh C5orf56 (11738088_a_at) / RFU OLFML3 (11715873_a_at) / Fold change /veh OLFML3 (11715873_a_at) / RFU LOC100653217 /// NTM (11731650_a_at) / Fold change /veh LOC100653217 /// NTM (11731650_a_at) / RFU MAPK11 (11762145_a_at) / Fold change /veh MAPK11 (11762145_a_at) / RFU FIZ1 (11724087_x_at) / Fold change /veh FIZ1 (11724087_x_at) / RFU OASL (11726364_x_at) / Fold change /veh OASL (11726364_x_at) / RFU SOX15 (11748057_x_at) / Fold change /veh SOX15 (11748057_x_at) / RFU CD79A (11719716_a_at) / Fold change /veh CD79A (11719716_a_at) / RFU HIST1H1D (11736915_at) / Fold change /veh HIST1H1D (11736915_at) / RFU CASKIN2 (11723855_a_at) / Fold change /veh CASKIN2 (11723855_a_at) / RFU LOC730098 (11760151_x_at) / Fold change /veh LOC730098 (11760151_x_at) / RFU OR4N2 (11742367_at) / Fold change /veh OR4N2 (11742367_at) / RFU PRRT2 (11749266_a_at) / Fold change /veh PRRT2 (11749266_a_at) / RFU SNX32 (11753110_a_at) / Fold change /veh SNX32 (11753110_a_at) / RFU CDHR5 (11726645_a_at) / Fold change /veh CDHR5 (11726645_a_at) / RFU RCAN1 (11760418_a_at) / Fold change /veh RCAN1 (11760418_a_at) / RFU FAM167A (11723789_a_at) / Fold change /veh FAM167A (11723789_a_at) / RFU FAM26E (11764081_at) / Fold change /veh FAM26E (11764081_at) / RFU ISYNA1 (11749810_s_at) / Fold change /veh ISYNA1 (11749810_s_at) / RFU ACY1 (11761880_at) / Fold change /veh ACY1 (11761880_at) / RFU 11764098_at / Fold change /veh 11764098_at / RFU SAMD14 (11745864_x_at) / Fold change /veh SAMD14 (11745864_x_at) / RFU NPB (11741838_a_at) / Fold change /veh NPB (11741838_a_at) / RFU TMPRSS6 (11731388_a_at) / Fold change /veh TMPRSS6 (11731388_a_at) / RFU KRTAP10-2 (11738614_at) / Fold change /veh KRTAP10-2 (11738614_at) / RFU ARHGAP8 /// PRR5-ARHGAP8 (11727945_x_at) / Fold change /veh ARHGAP8 /// PRR5-ARHGAP8 (11727945_x_at) / RFU KRTAP5-7 /// NADSYN1 (11734609_at) / Fold change /veh KRTAP5-7 /// NADSYN1 (11734609_at) / RFU RASL12 (11751679_a_at) / Fold change /veh RASL12 (11751679_a_at) / RFU CDKN2B (11736163_a_at) / Fold change /veh CDKN2B (11736163_a_at) / RFU PRF1 (11729649_at) / Fold change /veh PRF1 (11729649_at) / RFU, ZNF638 /// ZNF638-IT1 / Fold change vs veh, ZNF638 /// ZNF638-IT1 / RFU, PANK3 / Fold change vs veh, PANK3 / RFU, SH3YL1 / Fold change vs veh, SH3YL1 / RFU, ZEB2 / Fold change vs veh, ZEB2 / RFU, NRIP1 / Fold change vs veh, NRIP1 / RFU, PTTG1IP / Fold change vs veh, PTTG1IP / RFU, CAPN2 / Fold change vs veh, CAPN2 / RFU, MED14 / Fold change vs veh, MED14 / RFU, SNORA58 / Fold change vs veh, SNORA58 / RFU, C1orf63 / Fold change vs veh, C1orf63 / RFU, LRRFIP1 / Fold change vs veh, LRRFIP1 / RFU, NDUFAF7 / Fold change vs veh, NDUFAF7 / RFU, SLC12A2 / Fold change vs veh, SLC12A2 / RFU, IBTK / Fold change vs veh, IBTK / RFU, ESF1 / Fold change vs veh, ESF1 / Fold change vs veh, TMEM50B / RFU, TAOK1 / Fold change vs veh, TAOK1 / RFU, ACBD3 / Fold change vs veh, ACBD3 / RFU, TMA16 / Fold change vs veh, TMA16 / RFU, RWDD3 / Fold change vs veh, RWDD3 / RFU, BCAT1 / Fold change vs veh, BCAT1 / RFU, EDEM3 / Fold change vs veh, EDEM3 / RFU, TMEM33 / Fold change vs veh, TMEM33 / RFU, WDR75 / Fold change vs veh, WDR75 / RFU, AHCTF1 / Fold change vs veh, AHCTF1 / RFU, TFRC / Fold change vs veh, TFRC / RFU, ZDHHC17 / Fold change vs veh, ZDHHC17 / RFU, NOM1 / Fold change vs veh, NOM1 / RFU, ARL8B / Fold change vs veh, ARL8B / RFU, ZBTB11 / Fold change vs veh, ZBTB11 / RFU, TAMM41 / Fold change vs veh, TAMM41 / RFU, KIAA1704 /// LOC100996395 / Fold change vs veh, KIAA1704 /// LOC100996395 / RFU, ING1 / Fold change vs veh, ING1 / RFU, TRMT61B / Fold change vs veh, TRMT61B / RFU, FUBP3 / Fold change vs veh, FUBP3 / RFU, TP53 / Fold change vs veh, TP53 / RFU, TNKS2 / Fold change vs veh, TNKS2 / RFU, ZFP14 / Fold change vs veh, ZFP14 / RFU, ACTR2 / Fold change vs veh, ACTR2 / RFU, PPP3R1 / Fold change vs veh, PPP3R1 / RFU, PIK3R1 / Fold change vs veh, PIK3R1 / RFU, HNRNPA1 / Fold change vs veh, HNRNPA1 / RFU, RNF170 / Fold change vs veh, RNF170 / RFU, ZNF28 / Fold change vs veh, ZNF28 / RFU, RNGTT / Fold change vs veh, RNGTT / RFU, OGT / Fold change vs veh, OGT / RFU, BRD1 / Fold change vs veh, BRD1 / RFU, MARS / Fold change vs veh, MARS / RFU, ZNF655 / Fold change vs veh, ZNF655 / RFU, FAHD1 / Fold change vs veh, FAHD1 / RFU, BDP1 / Fold change vs veh, BDP1 / RFU, LRRCC1 / Fold change vs veh, LRRCC1 / RFU, ARID1A / Fold change vs veh, ARID1A / RFU, ZNF146 / Fold change vs veh, ZNF146 / RFU, ZNF330 / Fold change vs veh, ZNF330 / RFU, GPN3 / Fold change vs veh, GPN3 / RFU, C9orf123 / Fold change vs veh, C9orf123 / RFU, N4BP2L2 / Fold change vs veh, N4BP2L2 / RFU, ARFIP1 / Fold change vs veh, ARFIP1 / RFU, FAM179B / Fold change vs veh, FAM179B / RFU, BCL10 / Fold change vs veh, BCL10 / RFU, UHRF1BP1L / Fold change vs veh, UHRF1BP1L / RFU, BET1 / Fold change vs veh, BET1 / RFU, CNOT2 / Fold change vs veh, CNOT2 / RFU, ZNF268 / Fold change vs veh, ZNF268 / Fold change vs veh, ZNF507 / RFU, DGCR2 / Fold change vs veh, DGCR2 / RFU, WDSUB1 / Fold change vs veh, WDSUB1 / Fold change vs veh, HSP90B1 /// MIR3652 / RFU, ADSS / Fold change vs veh, ADSS / RFU, GK / Fold change vs veh, GK / RFU, ZNF148 / Fold change vs veh, ZNF148 / RFU, TAF9 / Fold change vs veh, TAF9 / RFU, SLC1A5 / Fold change vs veh, SLC1A5 / RFU, SLMO2 / Fold change vs veh, SLMO2 / RFU, ABCC4 / Fold change vs veh, ABCC4 / RFU, LOC101060439 /// RAP1B / Fold change vs veh, LOC101060439 /// RAP1B / RFU, RFX7 / Fold change vs veh, RFX7 / RFU, GTPBP10 / Fold change vs veh, GTPBP10 / RFU, CNEP1R1 / Fold change vs veh, CNEP1R1 / RFU, BIVM-ERCC5 /// ERCC5 / Fold change vs veh, BIVM-ERCC5 /// ERCC5 / RFU, ILF3 / Fold change vs veh, ILF3 / RFU 11762660_at / Fold change /veh 11762660_at / RFU VCAN (11757783_s_at) / Fold change /veh VCAN (11757783_s_at) / RFU DDX43 (11728927_at) / Fold change /veh DDX43 (11728927_at) / RFU KRT8 (11758188_x_at) / Fold change /veh KRT8 (11758188_x_at) / RFU NKD1 (11759106_at) / Fold change /veh NKD1 (11759106_at) / RFU SRD5A1 (11742802_a_at) / Fold change /veh SRD5A1 (11742802_a_at) / RFU TPSAB1 /// TPSB2 (11721975_s_at) / Fold change /veh TPSAB1 /// TPSB2 (11721975_s_at) / RFU GSTM3 (11746129_a_at) / Fold change /veh GSTM3 (11746129_a_at) / RFU IL23R (11737362_x_at) / Fold change /veh IL23R (11737362_x_at) / RFU TMEM51 (11727254_a_at) / Fold change /veh TMEM51 (11727254_a_at) / RFU PIWIL2 (11732686_x_at) / Fold change /veh PIWIL2 (11732686_x_at) / RFU ORM1 (11744905_x_at) / Fold change /veh ORM1 (11744905_x_at) / RFU CCDC152 (11743942_at) / Fold change /veh CCDC152 (11743942_at) / RFU ECM1 (11717891_a_at) / Fold change /veh ECM1 (11717891_a_at) / RFU IL23R (11748794_a_at) / Fold change /veh IL23R (11748794_a_at) / RFU TNFAIP8L3 (11732012_x_at) / Fold change /veh TNFAIP8L3 (11732012_x_at) / RFU MBOAT4 (11741988_at) / Fold change /veh MBOAT4 (11741988_at) / RFU 11764193_at / Fold change /veh 11764193_at / RFU TMEM53 (11763286_at) / Fold change /veh TMEM53 (11763286_at) / RFU MAGEB2 (11727129_at) / Fold change /veh MAGEB2 (11727129_at) / RFU TMEM200A (11744735_a_at) / Fold change /veh TMEM200A (11744735_a_at) / RFU CCDC152 (11751479_a_at) / Fold change /veh CCDC152 (11751479_a_at) / RFU FAM211A (11726209_a_at) / Fold change /veh FAM211A (11726209_a_at) / RFU RGS16 (11746705_a_at) / Fold change /veh RGS16 (11746705_a_at) / RFU VCAN (11755009_s_at) / Fold change /veh VCAN (11755009_s_at) / RFU RHOB (11743442_s_at) / Fold change /veh RHOB (11743442_s_at) / RFU RGS16 (11720943_a_at) / Fold change /veh RGS16 (11720943_a_at) / RFU RGS16 (11720944_at) / Fold change /veh RGS16 (11720944_at) / RFU, VPS4B / Fold change vs veh, VPS4B / RFU, CREB1 / Fold change vs veh, CREB1 / RFU, DNAJC13 / Fold change vs veh, DNAJC13 / RFU, GNAQ / Fold change vs veh, GNAQ / RFU, CDK5R1 / Fold change vs veh, CDK5R1 / RFU, ZRANB3 / Fold change vs veh, ZRANB3 / RFU, CUL4A / Fold change vs veh, CUL4A / RFU, CCNY / Fold change vs veh, CCNY / RFU, UFL1 / Fold change vs veh, UFL1 / RFU, COG3 / Fold change vs veh, COG3 / RFU, DIAPH2 / Fold change vs veh, DIAPH2 / RFU, SKA2 / Fold change vs veh, SKA2 / RFU, AFF3 / Fold change vs veh, AFF3 / RFU, LMF1 / Fold change vs veh, LMF1 / RFU, IPO11 / Fold change vs veh, IPO11 / RFU, DFFB / Fold change vs veh, DFFB / RFU, FOXP1 / Fold change vs veh, FOXP1 / RFU, CARD8 / Fold change vs veh, CARD8 / RFU, STRN3 / Fold change vs veh, STRN3 / RFU, ADK / Fold change vs veh, ADK / RFU, RASSF2 / Fold change vs veh, RASSF2 / RFU, WIPF1 / Fold change vs veh, WIPF1 / RFU, LARP1B / Fold change vs veh, LARP1B / RFU, RASA1 / Fold change vs veh, RASA1 / RFU, RB1 / Fold change vs veh, RB1 / RFU, PPFIA1 / Fold change vs veh, PPFIA1 / RFU, MAT2A / Fold change vs veh, MAT2A / RFU, CCT5 / Fold change vs veh, CCT5 / RFU, WDR92 / Fold change vs veh, WDR92 / RFU, CUX1 / Fold change vs veh, CUX1 / RFU, TTC7A / Fold change vs veh, TTC7A / RFU, TMEM135 / Fold change vs veh, TMEM135 / RFU, DEPTOR / Fold change vs veh, DEPTOR / RFU, CPM / Fold change vs veh, CPM / RFU, DNAJB6 / Fold change vs veh, DNAJB6 / RFU, CACNA2D3 / Fold change vs veh, CACNA2D3 / RFU, DTX4 / Fold change vs veh, DTX4 / RFU, TFCP2 / Fold change vs veh, TFCP2 / RFU, GMCL1 /// GMCL1P1 / Fold change vs veh, GMCL1 /// GMCL1P1 / RFU, AEBP2 / Fold change vs veh, AEBP2 / RFU, SNHG1 /// SNORD22 /// SNORD25 /// SNORD26 /// SNORD27 /// SNORD28 /// SNORD29 /// SNORD31 / Fold change vs veh, SNHG1 /// SNORD22 /// SNORD25 /// SNORD26 /// SNORD27 /// SNORD28 /// SNORD29 /// SNORD31 / Fold change (Aza/veh), C12orf56 (ProbeSet 11735607_a_at) / Fold change (ACY-1035/veh), C12orf56 (ProbeSet 11735607_a_at) / Fold change (Aza/veh), FGFR1OP (ProbeSet 11751329_s_at) / Fold change (ACY-1035/veh), FGFR1OP (ProbeSet 11751329_s_at) / Fold change (Aza/veh), VPS36 (ProbeSet 11739960_a_at) / Fold change (ACY-1035/veh), VPS36 (ProbeSet 11739960_a_at) / RFU SYPL1 (11715823_x_at) / Fold change /veh SYPL1 (11715823_x_at) / RFU IGFBP7 (11715501_s_at) / Fold change /veh IGFBP7 (11715501_s_at) / RFU REEP3 (11722064_at) / Fold change /veh REEP3 (11722064_at) / RFU IGLL1 (11728026_x_at) / Fold change /veh IGLL1 (11728026_x_at): dose or concentration left out as unconfirmed
# Details: ProbeSet 11740781_a_at; LIST B
smiles,measurement,value
Nc1ccc(-c2cccs2)cc1NC(=O)c1ccc2c(c1)cc(C1CC1)n2CCN1CCOCC1 [ACY-1035],"Fold change vs veh, ILF3",0.88
